# Source: patent US20080279795A1, “Tertiary Amine Functional Complex Polyester Polymers And Methods Of Production And Use” (priority 2003, published 2008)
# How the values were obtained:
# [1] = system: EpiOccular® model made of human-derived epidermal keratinocytes cultured to make them similar to human corneal tissue; format: cell-based
# Protocol: Irritancy to the eyes and to the skin was tested in-vitro using the EpiDerm® and EpiOccular® test models. EpiDerm® is a human test model of skin made up of normal epidermal keratinocytes. The EpiOccular® model is made of human-derived epidermal keratinocytes cultured to make them similar to human corneal tissue. In each of the tests, tissue samples are treated with the test article for various exposure times. Following treatment, the viability of the tissue is determined using MTT uptake and conversion, and the absorbance of the sample is measured at 540 nanometers (nm) wavelength using a reference wavelength of 690 nm. The viability is expressed as a percentage of control values. The mean percentage viability for each time point is used to calculate the ET50, which represents the time at which the tissue viability is reduced 50% compared to control tissue. […] Typically, higher molecular weight results in lower eye and skin irritancy.
# [2] = Rubine Dye test for substantivity on hair (chromameter); conditions: Example 3, second matrix of prototypes
# Description: The substrate (i.e., surface to which they are applied) in cosmetic applications is either the hair or the skin. […] Cationic conditioning agents act by binding a moiety, typically a long chain alkyl group, to the hair or skin by electrostatic attraction (ionic bonding), but also, weaker forces such as dipole-dipole interactions, and furthermore van der Waals forces can assist in substrate binding. Substantivity is a term used to describe how well a conditioning agent binds to the surface of the substrate. Substantivity of hair conditioning agents is often determined by performing the Rubine Dye test. The Rubine Dye test is designed to show how much of the conditioning ingredient adheres to the hair. Results from the Rubine Dye test are normally evaluated by comparison to some known standard or benchmark.
# The polyesteramine prototypes were tested internally for substantivity using the Rubine Dye test protocol. In the Rubine Dye test, the prototypes were benchmarked against Dehyquart® L-80 (dicocoylethyl hydroxyethylmonium methosulfate (and) propylene glycol), a commercial ester quaternary. The materials and equipment used in performing the Rubine Dye analysis were:
# The protocol used to perform the Rubine Dye analysis on polyesteramine prototypes and Dehyquart® L-80 and the compositions of ingredients used is described below.
# First, a stock dye solution was prepared using the following formula and preparation procedure: […]
# In a small vessel, deionized water, Lumicrease Bordeaux 3LR Powder, and glacial acetic acid were agitated at about 20 to about 25° C. until a solution was obtained. […]
# From about 0.95 to about 1.05 grams of hair was weighed out and glued onto pre-cut plastic sheets (1.5″×1.5″) using a hot glue gun to attach the swatches to the sheets. […] Quantitative comparisons of dye up-take and relative substantivity of each polymer were performed using a Minolta chromameter. Additionally, dye up-take was evaluated qualitatively by taking photographs of the hair swatches using a digital camera. […]
smiles,measurement,setting,value
CCCCCCCCCCCCCCCC[N+](C)(C)C.[Cl-] [cetrimonium chloride],EpiOcular ® ET50,"[1]; exposure times 16, 64 and […], time at which tissue viability is reduced 50% vs control",116.9 min
same,"irritancy classification, eyes",[1]; from EpiOcular ET50,more irritating
"CCCCCCCCCCCCCCCCCC(=O)NCCCN(C)C [Lexamine ® S-13, stearamidopropyldimethylamine]",a-scale value,[2]; higher a = more deposition,19.16
same,L-scale value,[2]; lower L = more deposition,65.15
same,b-scale value,[2]; lower b = more deposition,8.57
